Measurements as given in patent publication US20180161376A1, “COMPOSITIONS AND METHODS FOR NEURONAL DIFFERENTIATION OF CELLS” (Northern Sydney Local Health District, priority 2014, published 2018).

Key:
Format in all cases: cell-based, human
SMAD4 = test: RT-qPCR of SMAD4 mRNA in olfactory neurospheres treated with SB, LDN and TRIM; settings: ONS cells
Procedure: Primary olfactory cells were dissociated into single cells and seeded onto Poly L-Lysine (Sigma) coated tissue culture dishes at 20,000 cells/cm^2 in sphering media, which consists of DMEM+1×ITS+[…]. Cells were then incubated at 37° C. with 5% CO2 until neurospheres started to form. This normally takes 2-3 days. Small neurospheres (<200 μm in diameter) were manually picked under a dissecting microscope (Leica) and collected for differentiation.
For olfactory neurosphere differentiation experiments, cells were cultured in ONS differentiation media, which consists of neural basal media+1×B27+1×L-glutamine+pen/strep+1×β-mercaptoethanol+AA+BDNF supplemented with combinations of SB, LDN and TRIM. Cells were differentiated for 3-4 days before collected for analysis. Media was changed on the second day.
RT-qPCR was performed on cDNA samples with a Rotor-Gene 6000 (Corbett) using SYBER green based assays (Qiagen). All samples were normalized to GAPDH and the relative expression of each gene was determined using the delta-delta CT method. The primer sequences used are as follows:
The ability for ONS to respond to the treatments of SB, LDN and TRIM was tested. QPCR was performed according to the methods described in the foregoing examples.

[1] = system: olfactory neurospheres (ONS); test: Olfactory neurosphere (ONS) neuronal differentiation, immunostaining and morphology; settings: added to ONS differentiation media, 3-4 days
Procedure: Cells were fixed in 4% paraformaldehyde for 20 min and then blocked for 2 h at room temperature before incubated with the appropriate primary antibodies overnight at 4° C. The following primary antibodies were used: mouse β-III-tubulin (Sigma, 1:500), mouse N-cam (Dako, 1:100), mouse GFAP (Merk, 1:500), chicken Sox1 (Merk, 1:500), rabbit Nestin (Merk, 1:500), rabbit Neurofilament-Light (Merk, 1:500), rabbit Synapsin (Calbiochem, 1:500) and sheep Olfactory Marker Protein (Abcam, 1:500). Appropriate secondary antibodies were added and incubated for lh before samples were washed and mounted using Prolong Gold (Invitrogen) and analyzed using either a fluorescent microscope (Nikon) or a confocal microscope (Leica). All secondary antibodies were from Molecular Probes and diluted at 1:1000, except for anti-sheep secondary antibody, which was from Dako and diluted at 1:500.
Primary olfactory cells were dissociated into single cells and seeded onto Poly L-Lysine (Sigma) coated tissue culture dishes at 20,000 cells/cm^2 in sphering media, which consists of DMEM+1×ITS+50 μg/mL EGF+25 μg/mL FGF2. Cells were then incubated at 37° C. with 5% CO2 until neurospheres started to form. This normally takes 2-3 days. Small neurospheres (<200 μm in diameter) were manually picked under a dissecting microscope (Leica) and collected for differentiation. […]

olfactory primary cells = test: Olfactory primary cell culture differentiation, β-III-tubulin immunostaining; settings: 100 μM TRIM added, in all conditions, 4-7 days

Row | Structure (SMILES) | mRNA level / expression of SMAD4 (SMAD4; compared to cells cultured without inhibitors) | neurite morphology [1] | level of inhibition of SMAD4 (SMAD4; compared to cells cultured in the absence of inhibitors) [%] | β-III-tubulin positive cells on addition of NOS inhibitor (olfactory primary cells)
1 | NC(=O)c1ccc(-c2nc(-c3ccc4c(c3)OCO4)c(-c3ccccn3)[nH]2)cc1 [SB431542, 4-[4-(1,3-benzodioxol-5-yl)-5-(2-pyridinyl)-1H-imidazol-2-yl]benzamide] | no change | short neurites |  | 
2 | Cl.c1ccc2c(-c3cnn4cc(-c5ccc(N6CCNCC6)cc5)cnc34)ccnc2c1 [LDN193189, 4-(6-(4-(piperazin-1-yl)phenyl)pyrazolo[1,5-a]pyrimidin-3-yl)quinolone hydrochloride] |  | short neurites | 80 | 
3 | FC(F)(F)c1ccccc1-n1ccnc1 [TRIM, 1-(2-Trifluoromethylphenyl) Imidazole] |  |  |  | further increase in β-III-tubulin positive cells
